# What was measured:
# Experiment in all cases: relative viability (nuclei count vs DMSO), 5 days (fraction); higher = more cells survive
# Tozasertib + Navitoclax = compound: Cc1cc(Nc2cc(N3CCN(C)CC3)nc(Sc3ccc(NC(=O)C4CC4)cc3)n2)n[nH]1 [Tozasertib] + CC1(C)CCC(c2ccc(Cl)cc2)=C(CN2CCN(c3ccc(C(=O)NS(=O)(=O)c4ccc(N[C@H](CCN5CCOCC5)CSc5ccccc5)c(S(=O)(=O)C(F)(F)F)c4)cc3)CC2)C1 [Navitoclax] (partner 0.5 µM)
# Summary of the method: (§1)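 Lung cancer cell lines in 1536-well plates were dosed by pin tool the day after seeding, either with one drug alone or with a fixed anchor-drug dose plus five library-drug doses (not always all listed) in √10 steps. After 5 days, cells were fixed and their nuclei stained in one step (final 0.05% Triton X-100, 1% formaldehyde, 1 ug/ml Hoechst), then counted on 4× images. Relative viability is the nuclei count in treated wells divided by that in vehicle wells. Values are medians of duplicate plates.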
# Tozasertib + Luminespib = compound: Cc1cc(Nc2cc(N3CCN(C)CC3)nc(Sc3ccc(NC(=O)C4CC4)cc3)n2)n[nH]1 [Tozasertib] + CCNC(=O)c1noc(-c2cc(C(C)C)c(O)cc2O)c1-c1ccc(CN2CCOCC2)cc1 [Luminespib] (partner 0.01 µM)
# Summary of the method: as §1
# Tozasertib + Crizotinib = compound: Cc1cc(Nc2cc(N3CCN(C)CC3)nc(Sc3ccc(NC(=O)C4CC4)cc3)n2)n[nH]1 [Tozasertib] + C[C@@H](Oc1cc(-c2cnn(C3CCNCC3)c2)cnc1N)c1c(Cl)ccc(F)c1Cl [Crizotinib] (partner 1 µM)
# Summary of the method: as §1
# Tozasertib + Decitabine = compound: Cc1cc(Nc2cc(N3CCN(C)CC3)nc(Sc3ccc(NC(=O)C4CC4)cc3)n2)n[nH]1 [Tozasertib] + Nc1ncn([C@H]2C[C@H](O)[C@@H](CO)O2)c(=O)n1 [Decitabine] (partner 2 µM)
# Summary of the method: as §1
# Tozasertib + Olaparib = compound: Cc1cc(Nc2cc(N3CCN(C)CC3)nc(Sc3ccc(NC(=O)C4CC4)cc3)n2)n[nH]1 [Tozasertib] + O=C(c1cc(Cc2n[nH]c(=O)c3ccccc23)ccc1F)N1CCN(C(=O)C2CC2)CC1 [Olaparib] (partner 8 µM)
# Summary of the method: as §1
Cell Line,relative viability (Tozasertib + Navitoclax; first compound 0.004 µM),relative viability (Tozasertib + Navitoclax; first compound 0.01265 µM),relative viability (Tozasertib + Navitoclax; first compound 0.04 µM),relative viability (Tozasertib + Navitoclax; first compound 0.1265 µM),relative viability (Tozasertib + Luminespib; first compound 0.004 µM),relative viability (Tozasertib + Luminespib; first compound 0.01265 µM),relative viability (Tozasertib + Luminespib; first compound 0.04 µM),relative viability (Tozasertib + Luminespib; first compound 0.1265 µM),relative viability (Tozasertib + Crizotinib; first compound 0.004 µM),relative viability (Tozasertib + Crizotinib; first compound 0.04 µM),relative viability (Tozasertib + Crizotinib; first compound 0.1265 µM),relative viability (Tozasertib + Decitabine; first compound 0.004 µM),relative viability (Tozasertib + Decitabine; first compound 0.01265 µM),relative viability (Tozasertib + Decitabine; first compound 0.04 µM),relative viability (Tozasertib + Decitabine; first compound 0.1265 µM),relative viability (Tozasertib + Olaparib; first compound 0.004 µM),relative viability (Tozasertib + Olaparib; first compound 0.01265 µM),relative viability (Tozasertib + Olaparib; first compound 0.04 µM),relative viability (Tozasertib + Olaparib; first compound 0.1265 µM),relative viability (Tozasertib + Crizotinib; first compound 0.01265 µM)
EKVX,0.932,0.939,1.06,0.914,0.753,0.872,0.827,0.694,0.766,0.932,0.802,0.265,0.345,0.354,0.316,0.93,0.773,0.798,0.688,
NCI-H1792,0.681,0.481,,0.418,0.394,,0.456,0.325,0.951,1.16,0.913,0.601,0.534,0.482,0.505,0.456,0.435,0.707,0.314,0.9
NCI-H1944,0.96,1.05,1.02,0.695,0.717,0.706,0.866,0.414,0.943,1.04,0.616,0.404,0.396,0.403,0.349,0.406,0.38,0.398,0.287,0.962
NCI-H838,1.26,1.14,1.4,1.14,0.292,0.304,0.344,0.295,0.939,0.898,0.706,0.464,0.458,0.453,0.253,0.814,0.752,0.815,0.386,0.863
LCLC-97TM1,,0.434,0.466,0.242,0.895,,0.724,0.615,,0.257,0.189,0.222,0.232,0.235,0.185,0.53,0.381,0.335,0.231,0.288
EMC-BAC-2,1.18,1.14,1.25,0.812,1.15,1.11,1.3,0.827,0.803,0.461,0.23,0.977,0.86,0.918,0.58,0.511,0.437,0.414,0.366,0.704
HOP-62,1.06,0.946,1.08,0.99,0.953,0.876,0.912,0.976,1.03,0.941,0.776,0.213,0.234,0.194,0.196,0.699,0.436,0.458,0.288,0.964
LK-2,0.878,0.736,0.981,0.392,0.204,0.195,0.166,0.172,0.19,0.239,0.244,0.428,0.291,0.363,0.141,0.753,0.715,0.77,0.326,
NCI-H322M,1.18,1.28,1.24,1.35,0.805,0.996,0.851,0.564,0.891,0.552,0.584,0.656,0.661,0.675,0.618,0.788,0.843,0.863,0.559,0.894
NCI-H460,1.18,1.03,1.46,0.788,0.031,0.0376,0.0324,0.0295,0.871,0.767,0.197,0.456,0.53,0.493,0.284,0.399,0.336,0.372,0.3,0.874
HCC-827,0.973,1.09,1.03,0.925,0.281,0.854,0.714,0.766,1.02,0.927,0.719,0.207,0.283,0.305,0.264,0.684,0.577,0.723,0.624,0.82
HARA,1.17,1.07,1.15,1.07,0.659,0.681,0.496,0.484,,0.776,0.14,0.495,0.486,0.572,0.203,0.821,1.2,0.983,0.349,0.984
NCI-H441,0.761,0.543,0.483,0.55,0.361,0.323,0.312,0.261,0.706,0.828,0.628,0.226,0.222,0.25,0.261,0.625,0.425,0.49,0.459,0.591
PC-14,1.03,,1.01,,,0.114,0.179,0.129,0.896,1.02,0.884,,0.21,0.184,0.128,,0.208,0.256,0.224,0.914
NCI-H1755,0.978,0.977,1.02,0.875,0.259,0.386,0.322,0.413,0.803,0.852,0.634,0.744,,0.62,0.644,0.854,0.879,0.822,0.59,0.89
NCI-H2347,0.921,0.761,0.901,0.755,0.326,,0.39,0.346,0.722,,0.723,0.567,0.365,0.627,0.74,0.528,0.616,0.697,0.582,0.71

Cell Line,relative viability (Tozasertib + Navitoclax; first compound 0.004 µM),relative viability (Tozasertib + Navitoclax; first compound 0.01265 µM),relative viability (Tozasertib + Navitoclax; first compound 0.04 µM),relative viability (Tozasertib + Navitoclax; first compound 0.1265 µM),relative viability (Tozasertib + Luminespib; first compound 0.004 µM),relative viability (Tozasertib + Luminespib; first compound 0.01265 µM),relative viability (Tozasertib + Luminespib; first compound 0.04 µM),relative viability (Tozasertib + Luminespib; first compound 0.1265 µM),relative viability (Tozasertib + Crizotinib; first compound 0.004 µM),relative viability (Tozasertib + Crizotinib; first compound 0.04 µM),relative viability (Tozasertib + Crizotinib; first compound 0.1265 µM),relative viability (Tozasertib + Decitabine; first compound 0.004 µM),relative viability (Tozasertib + Decitabine; first compound 0.01265 µM),relative viability (Tozasertib + Decitabine; first compound 0.04 µM),relative viability (Tozasertib + Decitabine; first compound 0.1265 µM),relative viability (Tozasertib + Olaparib; first compound 0.004 µM),relative viability (Tozasertib + Olaparib; first compound 0.01265 µM),relative viability (Tozasertib + Olaparib; first compound 0.04 µM),relative viability (Tozasertib + Olaparib; first compound 0.1265 µM),relative viability (Tozasertib + Crizotinib; first compound 0.01265 µM)
NCI-H647,1.06,1.15,1.03,0.882,0.24,0.152,0.186,0.194,1.26,0.794,0.31,0.43,0.402,0.322,0.25,0.744,0.445,0.501,0.369,0.979
NCI-H520,1.08,1.03,1.17,0.602,0.193,0.219,0.219,0.233,1.31,0.484,0.355,0.533,0.449,0.467,0.296,0.285,0.316,,0.272,0.742
NCI-H1355,0.867,0.917,1.15,0.768,0.643,0.738,0.689,0.58,1.09,1.09,0.775,0.357,0.35,0.33,0.357,0.748,0.694,0.689,0.545,1.09
NCI-H2087,1.01,0.872,1.1,0.644,0.175,0.185,0.177,0.172,0.837,0.804,0.658,0.244,0.257,0.306,0.143,0.595,0.645,0.609,0.456,0.865
NCI-H3122,0.996,1,1.04,1.05,0.0858,0.0879,0.1,0.101,0.26,0.289,0.277,0.444,0.356,0.48,0.494,0.646,0.67,0.62,0.641,0.287
LOU-NH91,0.426,0.704,0.726,0.665,,0.354,0.33,0.336,0.619,0.754,0.722,0.681,0.791,0.812,0.762,0.781,0.916,0.937,0.922,0.703
NCI-H1666,0.948,0.863,0.918,0.87,0.957,1.03,0.968,0.859,0.974,0.958,0.578,0.746,0.68,0.678,0.521,0.717,0.727,0.729,0.705,1.27
NCI-H1975,1.14,1.2,1.23,1.1,0.213,0.32,0.171,0.198,1.05,0.853,0.604,0.371,0.462,0.382,0.36,0.829,0.739,0.795,0.74,1.03
NCI-H1651,1.17,1.05,1.18,1.07,0.818,0.918,1,0.909,0.892,0.906,0.867,0.608,0.623,0.611,0.437,0.189,0.158,0.173,0.167,0.81
SK-MES-1,1.17,1.23,1.4,1.02,0.921,0.731,0.82,0.82,1.04,0.94,0.901,0.319,0.376,0.434,0.316,0.791,0.666,0.71,0.657,0.929
NCI-H23,0.842,0.867,0.805,0.472,0.198,0.221,0.183,0.198,0.45,0.421,0.27,0.332,0.298,0.276,0.242,0.34,0.29,0.269,0.182,0.459
LXF-289,0.964,0.889,0.807,0.588,0.573,0.51,0.664,0.399,,0.717,0.161,0.378,0.405,0.337,0.262,1.08,0.942,0.792,0.644,0.758
NCI-H1915,0.767,0.765,0.773,0.623,0.968,0.835,0.678,0.482,0.98,0.873,0.721,0.268,0.263,0.236,0.261,0.248,0.275,0.212,0.212,0.889
COR-L23,1,0.897,0.954,0.757,0.836,0.619,0.618,0.637,0.695,0.453,0.412,0.42,0.384,0.439,0.247,0.375,0.378,0.3,0.299,0.667
NCI-H596,1.05,0.815,1.07,0.827,0.957,0.96,1.09,0.901,1.09,1.01,0.79,0.984,0.948,0.853,0.888,0.605,0.769,0.732,0.525,0.949
PC-3 [JPC-3],0.579,0.699,0.935,0.756,0.625,0.699,0.814,0.71,0.884,0.94,0.945,0.808,0.889,0.828,0.793,0.807,1.15,1.16,1.14,0.973

# — the supplement of paper PMC10307832
